Assay results as given in US20180370940A1, “SALICYLIC ACID DERIVATIVE, METHOD FOR PREPARING SAME, AND COSMETIC COMPOSITION FOR WHITENING COMPRISING SAME” (AMOREPACIFIC CORPORATION, priority 2015, published 2018).

Biological target: Mushroom-derived tyrosinase
Test: Inhibitory effect on tyrosinase activity (mushroom tyrosinase, L-tyrosine substrate, absorbance at 490 nm)
Type: biochemical
Details: for IC50: mushroom tyrosinase, 1.5 mM L-tyrosine, pH 6.5, 37° C. for 20 minutes, absorbance at 490 nm, read-out: Inhibition of tyrosinase activity (IC50); for inhibitory effect on tyrosinase activity (in words): at a concentration of 200 μM or less
Protocol: In order to investigate the tyrosinase activity inhibitory effect of the salicylic acid derivatives prepared in Examples 1 to 6, the following experiment was conducted. Mushroom-derived tyrosinase and tyrosine were purchased from Sigma Chemical. Each sample was treated with 150 microliters of 0.1 M phosphate buffer (pH 6.5), 8 microliters of mushroom tyrosinase (2,100 units/ml, 0.05 M phosphate buffer, pH 6.5) and 36 microliters of 1.5 mM L-tyrosine by concentration. After the enzymatic reaction was carried out at 37° C. for 20 minutes, the activity of tyrosinase was measured by measuring the absorbance at 490 nm using a microplate reader (Bio-Rad 3550, Richmond, Calif., U.S.A.). The inhibitory effect of tyrosinase of the salicylic acid derivatives prepared in Examples 1 to 6 was determined based on the following Equation (1). Tyrosinase inhibition ratio (%)=100−((Reaction absorbance of each sample/reaction absorbance of the control group)×100) [Equation 1] The concentration of each test substance which decreased the activity of tyrosinase by 50% was determined by the above Equation, and the obtained results are shown in Table 1.

SMILES	IC50	inhibitory effect on tyrosinase activity (in words)
Cc1ccc(C(=O)OCc2cc(=O)c(O)co2)c(O)c1 [Compound of Example 2, 2-hydroxy-4-methyl-benzoic acid 5-hydroxy-4-oxo-4H-pyran-2-ylmethyl ester]	1.51 µM	
O=c1cc(CO)occ1O [Kojic acid, reference compound]	41 µM	
Cc1cccc(C(=O)OCc2cc(=O)c(O)co2)c1O [Compound of Example 1, 2-hydroxy-3-methyl-benzoic acid 5-hydroxy-4-oxo-4H-pyran-2-ylmethyl ester]	3.2 µM	
Cc1cccc(C(=O)O)c1O [3-Methylsalicylic acid, reference compound]	> 200 µM	do not exhibit the inhibitory effect
COc1cccc(C(=O)O)c1O [3-Methoxysalicylic acid, reference compound]	> 200 µM	do not exhibit the inhibitory effect

Further lines, results first:

IC50	inhibitory effect on tyrosinase activity (in words)	SMILES
3.29 µM		COc1ccc(O)c(C(=O)OCc2cc(=O)c(O)co2)c1 [Compound of Example 6, 2-Hydroxy-5-methoxy-benzoic acid 5-hydroxy-4-oxo-4H-pyran-2-ylmethyl ester]
5.3 µM		Cc1ccc(O)c(C(=O)OCc2cc(=O)c(O)co2)c1 [Compound of Example 3, 2-hydroxy-5-methyl-benzoic acid 5-hydroxy-4-oxo-4H-pyran-2-ylmethyl ester]
4.21 µM		COc1cccc(C(=O)OCc2cc(=O)c(O)co2)c1O [Compound of Example 4, 2-hydroxy-3-methoxy-benzoic acid 5-hydroxy-4-oxo-4H-pyran-2-ylmethyl ester]
4.2 µM		COc1ccc(C(=O)OCc2cc(=O)c(O)co2)c(O)c1 [Compound of Example 5, 2-hydroxy-4-methoxy-benzoic acid 5-hydroxy-4-oxo-4H-pyran-2-ylmethyl ester]
